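Tested at 5 concentrations; 48 h exposure; 96-well plates; endpoints linearly interpolated, else capped at highest concentration. The concentration for full growth arrest is given as TGI.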
What was measured:
Test in all cases: NCI anticancer screen, dose series, 48 h
OVCAR-8 ovarian = system: OVCAR-8 ovarian
KM20L2 colon = system: KM20L2 colon
KM12 colon = system: KM12 colon
UACC-257 melanoma = system: UACC-257 melanoma
A498 renal = system: A498 renal
U251 CNS = system: U251 CNS
NCI-H522 lung = system: NCI-H522 lung
A549 NSCLC = system: A549 NSCLC
CAKI-1 renal = system: CAKI-1 renal
UO-31 renal = system: UO-31 renal
SK-MEL-2 melanoma = system: SK-MEL-2 melanoma
SR leukemia = system: SR leukemia
HCT-116 colon = system: HCT-116 colon
SNB-78 CNS = system: SNB-78 CNS
SF-295 CNS = system: SF-295 CNS
NCI-H460 lung = system: NCI-H460 lung
TK-10 renal = system: TK-10 renal
HCT-15 colon = system: HCT-15 colon
OVCAR-4 ovarian = system: OVCAR-4 ovarian
UACC-62 melanoma = system: UACC-62 melanoma
SW-620 colon = system: SW-620 colon
M14 melanoma = system: M14 melanoma
HT29 colon = system: HT29 colon
SK-MEL-28 melanoma = system: SK-MEL-28 melanoma
LXFL 529 NSCLC = system: LXFL 529 NSCLC
HOP-92 NSCLC = system: HOP-92 NSCLC
EKVX NSCLC = system: EKVX NSCLC
SF-539 CNS = system: SF-539 CNS
HOP-18 NSCLC = system: HOP-18 NSCLC
IGROV1 ovarian = system: IGROV1 ovarian
NCI-H226 lung = system: NCI-H226 lung
HL-60(TB) leukemia = system: HL-60(TB) leukemia
COLO 205 colon = system: COLO 205 colon
DLD-1 colon = system: DLD-1 colon
SNB-75 CNS = system: SNB-75 CNS
ACHN renal = system: ACHN renal
SF-268 CNS = system: SF-268 CNS
LOX IMVI melanoma = system: LOX IMVI melanoma
MALME-3M melanoma = system: MALME-3M melanoma
SK-OV-3 ovarian = system: SK-OV-3 ovarian
HCC-2998 colon = system: HCC-2998 colon
MOLT-4 leukemia = system: MOLT-4 leukemia
K-562 leukemia = system: K-562 leukemia
DMS 273 small cell lung = system: DMS 273 small cell lung
CCRF-CEM leukemia = system: CCRF-CEM leukemia
M19-MEL melanoma = system: M19-MEL melanoma
SN12C renal = system: SN12C renal
OVCAR-5 ovarian = system: OVCAR-5 ovarian
SK-MEL-5 melanoma = system: SK-MEL-5 melanoma
RPMI-8226 leukemia = system: RPMI-8226 leukemia
NCI-H23 lung = system: NCI-H23 lung
OVCAR-3 ovarian = system: OVCAR-3 ovarian
786-0 renal = system: 786-0 renal
DMS 114 small cell lung = system: DMS 114 small cell lung
RXF-631 renal = system: RXF-631 renal
SNB-19 CNS = system: SNB-19 CNS
HOP-62 NSCLC = system: HOP-62 NSCLC
RXF 393 renal = system: RXF 393 renal

SMILES: C/C=C/C=N/N(c1nnc(-c2ccccc2)c(-c2ccccc2)n1)S(=O)(=O)c1ccc(C)cc1
- TGI (OVCAR-8 ovarian): 20.7 µM
- TGI (KM20L2 colon): 26.1 µM
- TGI (KM12 colon): 22.9 µM
- TGI (UACC-257 melanoma): 20.9 µM
- TGI (A498 renal): 27.6 µM
- TGI (U251 CNS): 12.7 µM
- TGI (NCI-H522 lung): 19.4 µM
- TGI (A549 NSCLC): 28.1 µM
- TGI (CAKI-1 renal): 31.4 µM
- TGI (UO-31 renal): 19.6 µM
- TGI (SK-MEL-2 melanoma): 24.1 µM
- TGI (SR leukemia): 21.1 µM
- TGI (HCT-116 colon): 28 µM
- TGI (SNB-78 CNS): 83.2 µM
- TGI (SF-295 CNS): 22.9 µM
- TGI (NCI-H460 lung): 28.3 µM
- TGI (TK-10 renal): 28.2 µM
- TGI (HCT-15 colon): 18.6 µM
- TGI (OVCAR-4 ovarian): 28.2 µM
- TGI (UACC-62 melanoma): 11.6 µM
- TGI (SW-620 colon): 14.9 µM
- TGI (M14 melanoma): 15.8 µM
- TGI (HT29 colon): 24.1 µM
- TGI (SK-MEL-28 melanoma): 28.7 µM
- TGI (LXFL 529 NSCLC): 19.3 µM
- TGI (HOP-92 NSCLC): 31.3 µM
- TGI (EKVX NSCLC): 31.9 µM
- TGI (SF-539 CNS): 23.8 µM
- TGI (HOP-18 NSCLC): 27.4 µM
- TGI (IGROV1 ovarian): 29.3 µM
- TGI (NCI-H226 lung): 31.2 µM
- TGI (HL-60(TB) leukemia): 6.36 µM
- TGI (COLO 205 colon): 35.7 µM
- TGI (DLD-1 colon): 32.7 µM
- TGI (SNB-75 CNS): 19.9 µM
- TGI (ACHN renal): 24.3 µM
- TGI (SF-268 CNS): 18 µM
- TGI (LOX IMVI melanoma): 13.8 µM
- TGI (MALME-3M melanoma): 22.8 µM
- TGI (SK-OV-3 ovarian): 33.8 µM
- TGI (HCC-2998 colon): 31.3 µM
- TGI (MOLT-4 leukemia): 26.6 µM
- TGI (K-562 leukemia): > 100 µM
- TGI (DMS 273 small cell lung): 29.8 µM
- TGI (CCRF-CEM leukemia): 9.21 µM
- TGI (M19-MEL melanoma): 36.3 µM
- TGI (SN12C renal): 20.7 µM
- TGI (OVCAR-5 ovarian): 33.5 µM
- TGI (SK-MEL-5 melanoma): 23.1 µM
- TGI (RPMI-8226 leukemia): 36.6 µM
- TGI (NCI-H23 lung): 29.7 µM
- TGI (OVCAR-3 ovarian): 25.2 µM
- TGI (786-0 renal): 19.2 µM
- TGI (DMS 114 small cell lung): 37.6 µM
- TGI (RXF-631 renal): 73.2 µM

SMILES: O=C(NCCCN1CCN(CCCNC(=O)c2cnc3ccccc3n2)CC1)c1cnc2ccccc2n1
- TGI (OVCAR-8 ovarian): > 100 µM
- TGI (KM20L2 colon): > 100 µM
- TGI (KM12 colon): > 100 µM
- TGI (UACC-257 melanoma): > 100 µM
- TGI (A498 renal): > 100 µM
- TGI (U251 CNS): > 100 µM
- TGI (NCI-H522 lung): > 100 µM
- TGI (A549 NSCLC): > 100 µM
- TGI (CAKI-1 renal): > 100 µM
- TGI (UO-31 renal): > 100 µM
- TGI (SK-MEL-2 melanoma): > 100 µM
- TGI (HCT-116 colon): > 100 µM
- TGI (SNB-78 CNS): > 100 µM
- TGI (SF-295 CNS): > 100 µM
- TGI (NCI-H460 lung): > 100 µM
- TGI (HCT-15 colon): > 100 µM
- TGI (OVCAR-4 ovarian): > 100 µM
- TGI (UACC-62 melanoma): > 100 µM
- TGI (SW-620 colon): > 100 µM
- TGI (M14 melanoma): > 100 µM
- TGI (HT29 colon): > 100 µM
- TGI (SK-MEL-28 melanoma): > 100 µM
- TGI (LXFL 529 NSCLC): > 100 µM
- TGI (SNB-19 CNS): > 100 µM
- TGI (EKVX NSCLC): > 100 µM
- TGI (SF-539 CNS): > 100 µM
- TGI (HOP-18 NSCLC): > 100 µM
- TGI (IGROV1 ovarian): > 100 µM
- TGI (NCI-H226 lung): > 100 µM
- TGI (HL-60(TB) leukemia): > 100 µM
- TGI (HOP-62 NSCLC): > 100 µM
- TGI (COLO 205 colon): > 100 µM
- TGI (DLD-1 colon): > 100 µM
- TGI (SNB-75 CNS): > 100 µM
- TGI (ACHN renal): > 100 µM
- TGI (SF-268 CNS): > 100 µM
- TGI (LOX IMVI melanoma): > 100 µM
- TGI (MALME-3M melanoma): > 100 µM
- TGI (SK-OV-3 ovarian): > 100 µM
- TGI (HCC-2998 colon): > 100 µM
- TGI (MOLT-4 leukemia): > 100 µM
- TGI (K-562 leukemia): > 100 µM
- TGI (DMS 273 small cell lung): > 100 µM
- TGI (CCRF-CEM leukemia): > 100 µM
- TGI (M19-MEL melanoma): > 100 µM
- TGI (SN12C renal): > 100 µM
- TGI (SK-MEL-5 melanoma): > 100 µM
- TGI (RPMI-8226 leukemia): > 100 µM
- TGI (RXF 393 renal): > 100 µM
- TGI (OVCAR-3 ovarian): > 100 µM
- TGI (786-0 renal): > 100 µM
- TGI (DMS 114 small cell lung): > 100 µM
- TGI (RXF-631 renal): > 100 µM

Source: PubChem BioAssay (NCI)
